Laboratory results from patent US20180298405A1, “METHODS AND COMPOSITIONS TO INCREASE HUMAN SOMATIC CELL NUCLEAR TRANSFER (SCNT) EFFICIENCY BY REMOVING HISTONE H3-LYSINE TRIMETHYLATION, AND DERIVATION OF HUMAN NT-ESC” (CHILDREN'S MEDICAL CENTER CORPORATION, priority 2015, published 2018).

System: reprogramming resistant regions (RRRs) / ZGA genes
Experiment: RNA-seq of late 8-cell human SCNT embryos with or without KDM4A mRNA injection (ZGA of RRRs, KDM4A-responsive genes)
Format: cell-based
Excerpt: A sliding window (size 20 kb, step size 10 kb) was used to assess the genome-wide expression level of 4-cell and 8-cell human embryos. For each window, the expression level was quantified with normalized RPM (reads per millions of uniquely mapped reads). […] These activated regions were classed into three groups based on their expression differences in human SCNT and IVF 8-cell embryos.
The SCNT embryos used for ZGA analysis were generated using oocytes donated by a single healthy person (#64) and dermal fibroblast cells from an AMD patient (DFB-8). SCNT and IVF embryos were cultured up to late 8-cell stage, when the compaction of blastomeres is initiated, then they were treated briefly with acid Tyrode solution to remove zona pellucida. To prepare for the 8-cell SCNT embryo, oocytes from a single oocyte donor, and skin fibroblast cells from a single somatic nuclear donor were used. All the procedures are the same as described in the “Human SCNT procedure and KMD4A mRNA injection” section. Only embryos that reached the late 8-cell stage synchronically 74 hours post activation were collected and used for this experiment.
For preparation of the control IVF embryos, several donated early 8-cell stage IVF embryos were thawed and cultured for 5-7 hours to allow them to reach late 8-cell stage before being processed. After removal of the zona pellucida, the denuded embryos were washed 3 times in PBS, loaded into RNAse and DNAse free PCR tubes, spin downed, and snap frozen in liquid nitrogen. Then, they were kept at −80° C. until use. As controls, dermal fibroblast cells of somatic nuclear donors were also prepared. Those fibroblast cells were cultured in a 25 cm^2 flask in DMEM 10% FBS, and approximately 10,000 cells/donor were collected, snap frozen, and stored at −80° C. until use.
Five 8-cell embryos for each group were directly lysed and used for cDNA synthesis using SMART-Seq v4 Ultra Low Input RNA Kit (Clontech). For MEF donor, 10 ng total RNA was used for cDNA synthesis using SMART-Seq v4 Ultra Low Input RNA Kit. After amplification, the cDNA samples were fragmented using Covaris sonicator M220 to an average size of 150 bp (Covaris). Sequencing libraries were made with the fragmented DNA using NEBNext Ultra DNA Library Prep Kit for Illumina according to manufacturer's instruction (New England Biolabs) with different barcodes. For each RNA-seq analysis of hESCs, 1 μg total RNA was used for mRNA purification. Barcoded RNA-seq libraries were generated using NEBNext Ultra Directional RNA Library Prep Kit for Illumina (New England Biolabs). Single end 50 bp sequencing was performed on a HiSeq 2500 sequencer (Illumina). Sequencing reads were mapped to the human genome (hg19) with Tophat2. All programs were performed with default settings (unless otherwise specified). At least 22 million uniquely mapped reads were obtained for each sequencing library, and subsequently assembled into transcripts guided by the reference annotation (Refseq gene models) with Cufflinks v2.0.2. Expression level of each gene was quantified with normalized FPKM (fragments per kilobase of exon per million mapped fragments). Statistical analyses were performed with R (available at: “www.r-project.org/”). Independent 2 group Wilcoxon rank sum tests were used to compare distributions using the wilcox.test function in R. Pearson's r coefficient was calculated using the cor function with default parameters. The hierarchical clustering analysis of the global gene expression pattern in different samples was carried out using heatmap.2 function (gplots package) in R.

KDM4A mRNA: in vitro transcribed mRNA of full length human KDM4A/JHDM3A cDNA, an H3K9me3 demethylase (SEQ ID NO: 1)
ZNF826P Fold Change (log2) [KDM4A SCNT/Control SCNT] (8-cell embryos): 2.67 log2
ZNHIT6 Fold Change (log2) [KDM4A SCNT/Control SCNT] (8-cell embryos): 1.58 log2
12-Sep Expression level (FPKM) (KDM4A SCNT 8-cell embryos): 0.3 FPKM
AASDH Expression level (FPKM) (KDM4A SCNT 8-cell embryos): 2.84 FPKM
ACBD5 Expression level (FPKM) (KDM4A SCNT 8-cell embryos): 1.62 FPKM
ALG5 Expression level (FPKM) (KDM4A SCNT 8-cell embryos): 9.71 FPKM
ALPPL2 Expression level (FPKM) (KDM4A SCNT 8-cell embryos): 3.65 FPKM
APOC1P1 Expression level (FPKM) (KDM4A SCNT 8-cell embryos): 0.43 FPKM
ATP5J2-PTCD1 Expression level (FPKM) (KDM4A SCNT 8-cell embryos): 4.51 FPKM
BEX2 Expression level (FPKM) (KDM4A SCNT 8-cell embryos): 2.68 FPKM
BLVRB Expression level (FPKM) (KDM4A SCNT 8-cell embryos): 2.11 FPKM
BTAF1 Expression level (FPKM) (KDM4A SCNT 8-cell embryos): 1.46 FPKM
BTK Expression level (FPKM) (KDM4A SCNT 8-cell embryos): 1.67 FPKM
BUD31 Expression level (FPKM) (KDM4A SCNT 8-cell embryos): 76.07 FPKM
C1D Expression level (FPKM) (KDM4A SCNT 8-cell embryos): 97 FPKM
C2orf74 Expression level (FPKM) (KDM4A SCNT 8-cell embryos): 0.41 FPKM
C11orf67 Expression level (FPKM) (KDM4A SCNT 8-cell embryos): 28.21 FPKM
C12orf60 Expression level (FPKM) (KDM4A SCNT 8-cell embryos): 46.22 FPKM
C16orf91 Expression level (FPKM) (KDM4A SCNT 8-cell embryos): 9.96 FPKM
C17orf89 Expression level (FPKM) (KDM4A SCNT 8-cell embryos): 0.75 FPKM
C18orf56 Expression level (FPKM) (KDM4A SCNT 8-cell embryos): 0.33 FPKM
C20orf7 Expression level (FPKM) (KDM4A SCNT 8-cell embryos): 2.28 FPKM
CAB39L Expression level (FPKM) (KDM4A SCNT 8-cell embryos): 4.06 FPKM
CCAR1 Expression level (FPKM) (KDM4A SCNT 8-cell embryos): 4.62 FPKM
CCDC86 Expression level (FPKM) (KDM4A SCNT 8-cell embryos): 2.88 FPKM
CCL2 Expression level (FPKM) (KDM4A SCNT 8-cell embryos): 6.1 FPKM
CCL15 Expression level (FPKM) (KDM4A SCNT 8-cell embryos): 0.89 FPKM
CELA3B Expression level (FPKM) (KDM4A SCNT 8-cell embryos): 0.49 FPKM
CENPC1 Expression level (FPKM) (KDM4A SCNT 8-cell embryos): 7.41 FPKM
CLC Expression level (FPKM) (KDM4A SCNT 8-cell embryos): 13.82 FPKM
CLDN6 Expression level (FPKM) (KDM4A SCNT 8-cell embryos): 3.54 FPKM
CLK4 Expression level (FPKM) (KDM4A SCNT 8-cell embryos): 19.9 FPKM
CNKSR3 Expression level (FPKM) (KDM4A SCNT 8-cell embryos): 0.29 FPKM
CNPY4 Expression level (FPKM) (KDM4A SCNT 8-cell embryos): 5.19 FPKM
COX7B2 Expression level (FPKM) (KDM4A SCNT 8-cell embryos): 0.79 FPKM
COX17 Expression level (FPKM) (KDM4A SCNT 8-cell embryos): 26.62 FPKM
CSAG1 Expression level (FPKM) (KDM4A SCNT 8-cell embryos): 2.22 FPKM
CSTF3 Expression level (FPKM) (KDM4A SCNT 8-cell embryos): 28.96 FPKM
CUL2 Expression level (FPKM) (KDM4A SCNT 8-cell embryos): 14.32 FPKM
CXorf61 Expression level (FPKM) (KDM4A SCNT 8-cell embryos): 0.85 FPKM
DDX26B Expression level (FPKM) (KDM4A SCNT 8-cell embryos): 1.77 FPKM
DEFB122 Expression level (FPKM) (KDM4A SCNT 8-cell embryos): 0.61 FPKM
DLEU7 Expression level (FPKM) (KDM4A SCNT 8-cell embryos): 2.91 FPKM
DNASE2 Expression level (FPKM) (KDM4A SCNT 8-cell embryos): 0.61 FPKM
DRAM1 Expression level (FPKM) (KDM4A SCNT 8-cell embryos): 0.63 FPKM
ECE2 Expression level (FPKM) (KDM4A SCNT 8-cell embryos): 1.18 FPKM
EIF1AD Expression level (FPKM) (KDM4A SCNT 8-cell embryos): 9.43 FPKM
ELL2 Expression level (FPKM) (KDM4A SCNT 8-cell embryos): 1.39 FPKM
FAM9A Expression level (FPKM) (KDM4A SCNT 8-cell embryos): 1.32 FPKM
FAM19A3 Expression level (FPKM) (KDM4A SCNT 8-cell embryos): 1.7 FPKM
FAM83D Expression level (FPKM) (KDM4A SCNT 8-cell embryos): 2.53 FPKM
FAM133B Expression level (FPKM) (KDM4A SCNT 8-cell embryos): 6.06 FPKM
FAM151A Expression level (FPKM) (KDM4A SCNT 8-cell embryos): 1.01 FPKM
FAM162A Expression level (FPKM) (KDM4A SCNT 8-cell embryos): 19.35 FPKM
FAM200A Expression level (FPKM) (KDM4A SCNT 8-cell embryos): 1.23 FPKM
FASTKD5 Expression level (FPKM) (KDM4A SCNT 8-cell embryos): 4.41 FPKM
FBXL12 Expression level (FPKM) (KDM4A SCNT 8-cell embryos): 1.8 FPKM
FMR1NB Expression level (FPKM) (KDM4A SCNT 8-cell embryos): 0.18 FPKM
FOXN2 Expression level (FPKM) (KDM4A SCNT 8-cell embryos): 5.53 FPKM
GALM Expression level (FPKM) (KDM4A SCNT 8-cell embryos): 3.67 FPKM
GIP Expression level (FPKM) (KDM4A SCNT 8-cell embryos): 12.94 FPKM
GJA1 Expression level (FPKM) (KDM4A SCNT 8-cell embryos): 1.64 FPKM
GOLGB1 Expression level (FPKM) (KDM4A SCNT 8-cell embryos): 1.36 FPKM
GUCA1B Expression level (FPKM) (KDM4A SCNT 8-cell embryos): 0.83 FPKM
GUSBP1 Expression level (FPKM) (KDM4A SCNT 8-cell embryos): 7.96 FPKM
GUSBP4 Expression level (FPKM) (KDM4A SCNT 8-cell embryos): 2.42 FPKM
H3F3A Expression level (FPKM) (KDM4A SCNT 8-cell embryos): 14.47 FPKM
IFI30 Expression level (FPKM) (KDM4A SCNT 8-cell embryos): 25.62 FPKM
IL13RA2 Expression level (FPKM) (KDM4A SCNT 8-cell embryos): 0.26 FPKM
KHDC1 Expression level (FPKM) (KDM4A SCNT 8-cell embryos): 85.25 FPKM
KHDC1L Expression level (FPKM) (KDM4A SCNT 8-cell embryos): 668.53 FPKM
KITLG Expression level (FPKM) (KDM4A SCNT 8-cell embryos): 0.93 FPKM
KLF17 Expression level (FPKM) (KDM4A SCNT 8-cell embryos): 8.4 FPKM
KLK4 Expression level (FPKM) (KDM4A SCNT 8-cell embryos): 1.41 FPKM
KLK11 Expression level (FPKM) (KDM4A SCNT 8-cell embryos): 7.07 FPKM
KPTN Expression level (FPKM) (KDM4A SCNT 8-cell embryos): 6.84 FPKM
LARP6 Expression level (FPKM) (KDM4A SCNT 8-cell embryos): 0.41 FPKM
LEMD3 Expression level (FPKM) (KDM4A SCNT 8-cell embryos): 0.59 FPKM
LIM2 Expression level (FPKM) (KDM4A SCNT 8-cell embryos): 2.01 FPKM
LINC00263 Expression level (FPKM) (KDM4A SCNT 8-cell embryos): 3.81 FPKM
LOC284408 Expression level (FPKM) (KDM4A SCNT 8-cell embryos): 1.36 FPKM
LOC347411 Expression level (FPKM) (KDM4A SCNT 8-cell embryos): 1.62 FPKM
LOC401397 Expression level (FPKM) (KDM4A SCNT 8-cell embryos): 11.19 FPKM
LOC643955 Expression level (FPKM) (KDM4A SCNT 8-cell embryos): 3.18 FPKM
LOC653513 Expression level (FPKM) (KDM4A SCNT 8-cell embryos): 1.03 FPKM
LOC723809 Expression level (FPKM) (KDM4A SCNT 8-cell embryos): 3.84 FPKM
LOC100129515 Expression level (FPKM) (KDM4A SCNT 8-cell embryos): 9.35 FPKM
LOC100289211 Expression level (FPKM) (KDM4A SCNT 8-cell embryos): 8.18 FPKM
LOC100505854 Expression level (FPKM) (KDM4A SCNT 8-cell embryos): 4.77 FPKM
LOC100506305 Expression level (FPKM) (KDM4A SCNT 8-cell embryos): 0.91 FPKM
LOC100506668 Expression level (FPKM) (KDM4A SCNT 8-cell embryos): 8.79 FPKM
LUC7L Expression level (FPKM) (KDM4A SCNT 8-cell embryos): 2.91 FPKM
M1 Expression level (FPKM) (KDM4A SCNT 8-cell embryos): 2.52 FPKM
MAGEA12 Expression level (FPKM) (KDM4A SCNT 8-cell embryos): 0.25 FPKM
MAGEB2 Expression level (FPKM) (KDM4A SCNT 8-cell embryos): 0.79 FPKM
MATR3 Expression level (FPKM) (KDM4A SCNT 8-cell embryos): 9.43 FPKM
MED31 Expression level (FPKM) (KDM4A SCNT 8-cell embryos): 27.22 FPKM
MFSD11 Expression level (FPKM) (KDM4A SCNT 8-cell embryos): 7.94 FPKM
MPV17L2 Expression level (FPKM) (KDM4A SCNT 8-cell embryos): 4.48 FPKM
MRPL28 Expression level (FPKM) (KDM4A SCNT 8-cell embryos): 1.56 FPKM
MTERF Expression level (FPKM) (KDM4A SCNT 8-cell embryos): 3.15 FPKM
NANOGNB Expression level (FPKM) (KDM4A SCNT 8-cell embryos): 30.92 FPKM
NDUFAF2 Expression level (FPKM) (KDM4A SCNT 8-cell embryos): 6.37 FPKM
NMNAT1 Expression level (FPKM) (KDM4A SCNT 8-cell embryos): 3.71 FPKM
